Publication PMC11091879, “Inhibitors of the Thioesterase Activity of Mycobacterium tuberculosis Pks13 Discovered Using DNA-Encoded Chemical Library Screening” (ACS Infectious Diseases, 2024)

Legend:
Type in all cases: cell-based, Mycobacterium tuberculosis
[1] = system: H37Rv Pks13-TE Y1674C mutant
[2] = system: H37Rv Pks13-TE A1561 V mutant
[3] = system: H37Rv Pks13-TE V1687F mutant
[4] = system: H37Rv Pks13-TE R1563H mutant
[5] = system: H37Rv Pks13-TE V1537A mutant
[6] = system: H37Rv Pks13-TE A1564D mutant
WT H37Rv = system: WT H37Rv
[7] = system: H37Rv Pks13-TE N1640K mutant
[8] = system: H37Rv Pks13-TE Y1686C mutant

SMILES	Fold Change in MIC (Mutant MIC/WT H37Rv MIC) [1]	Fold Change in MIC (Mutant MIC/WT H37Rv MIC) [2]	Fold Change in MIC (Mutant MIC/WT H37Rv MIC) [3]	Fold Change in MIC (Mutant MIC/WT H37Rv MIC) [4]	Fold Change in MIC (Mutant MIC/WT H37Rv MIC) [5]	Fold Change in MIC (Mutant MIC/WT H37Rv MIC) [6]	frequency of resistance (FOR) (WT H37Rv)	Fold Change in MIC (Mutant MIC/WT H37Rv MIC) [7]	Fold Change in MIC (Mutant MIC/WT H37Rv MIC) [8]
COc1ccc(OC)c(-c2ccc(-c3cn(CCc4ccc(C(=O)N(C)C)cc4)nn3)cn2)c1 [X20404]	>63 fold	40 fold	>63 fold	>63 fold	>63 fold	>63 fold	4.7 × 10^–7	37 fold	19 fold
Cc1cc(C(=O)NCc2ccncc2)nc(N2CCC(C(=O)N3CCN(C(=O)c4cnc5c(C)cccc5c4)CC3)CC2)n1 [X21429]	18 fold	>57 fold	2.3 fold	1.6 fold	8.8 fold	17 fold		>57 fold	3.8 fold
CO[C@H]1/C=C/O[C@@]2(C)Oc3c(C)c(O)c4c(O)c(c(/C=N/N5CCN(C)CC5)c(O)c4c3C2=O)NC(=O)/C(C)=C\C=C\[C@H](C)[C@H](O)[C@@H](C)[C@@H](O)[C@@H](C)[C@H](OC(C)=O)[C@@H]1C [Rifampicin, reference compound]	1.6 fold	1.2 fold	1.2 fold	0.9 fold	1.3 fold	0.8 fold		1.5 fold	1 fold
